In patent publication US6686394B1, “Aryl-chloro-ethyl ureas” (Sovar, Societe en Commandite, priority 1999, dated 2004):

Legend:
HT-29 [1] = assay: Cytotoxicity assay C50/G50, MTT or resazurin (Example 16); format: cell-based, human; details: for IC50: Homo sapiens, day-3, read-out: G50 (concentration inhibiting cell growth by 50%); for C50 (concentration needed to kill 50% of the cellular population present at the beginning): day-3
Procedure: (§1) Cell culture. Tumor cell lines (B16-F0, Caco-2, DU-145, HT-29, MDA-MB-231 and other cell lines described so far in the patent application) were obtained from the American Type Culture Collection (ATCC HTB-26; Bethesda, Md.). Cells were grown in RPMI 1640 medium supplemented with 10% fetal bovine serum (Hyclone, Road Logan, Utah) and were cultured in a humidified atmosphere at 37° C. in 5% CO2.
(§2) Drugs: All drugs were dissolved in DMSO and the final concentration of DMSO in the culture medium was maintained at 0.5% (v/v).
(§3) Cytotoxiciy assays. At day-1, tumor cells in suspension in 100 μl were plated in microtiter plates (96 wells). On day-0, tumor cells were treated by addition of escalating concentrations of the drug (100 μl solution). On that day, the number of living cells was determined in wells that were untreated. This was performed in order to be able to evaluate the toxic concentration of the drug needed to kill 50% of the cellular population present at the beginning of the experiments. This value is represented by C50 in the table. At day-3, the number of living cells is determined using either MTT or resazurin assays. Growth inhibition activity of these compounds was expressed as the concentration of CAU inhibiting cell growth by 50% G50 in the following table
(§4) The MTT assay was as described above in Example 1. The Resazurin assay was performed as follows:
(§5) Aspirate the supernatant (cell suspension: centrifuge first)
(§6) Add 100 μL NaCl 0.9% (saline)
(§7) Add 50 μL RZ (resazurin 125 μg/ml/PBS: RPMI without FBS; 1:4) Incubate at 37° C.
(§8) Collect fluorescence data at different time.

MDA-MB-231 [2] = assay: as above; format: cell-based, human; details: for IC50: Homo sapiens, day-3, read-out: G50 (concentration inhibiting cell growth by 50%); for C50 (concentration needed to kill 50% of the cellular population present at the beginning): day-3
Procedure: as §1, §2, §3, §4, §5, §6, §7, §8

B16-F0 [3] = assay: as above; format: cell-based; details: for IC50: Mus musculus, B16F0, day-3, read-out: G50 (concentration inhibiting cell growth by 50%); for C50 (concentration needed to kill 50% of the cellular population present at the beginning): day-3
Procedure: as §1, §2, §3, §4, §5, §6, §7, §8

Caco-2 [4] = assay: as above; format: cell-based; details: for IC50: Homo sapiens, day-3, read-out: G50 (concentration inhibiting cell growth by 50%); for C50 (concentration needed to kill 50% of the cellular population present at the beginning): day-3
Procedure: as §1, §2, §3, §4, §5, §6, §7, §8

DU-145 [5] = assay: as above; format: cell-based; details: for IC50: Homo sapiens, day-3, read-out: G50 (concentration inhibiting cell growth by 50%); for C50 (concentration needed to kill 50% of the cellular population present at the beginning): day-3
Procedure: as §1, §2, §3, §4, §5, §6, §7, §8

B16-F0 [6] = assay: Cytotoxicity assay G50, MTT or resazurin (Example 29); format: cell-based; details: Mus musculus, B16F0; cell line B16-F0
Procedure: as §1, §2
as §3, with “The” for “This was performed in order to be able to evaluate the toxic concentration of the drug needed to kill 50% of the cellular population present at the beginning of the experiments. This value is represented by C50 in the table. At day-3, the”
as §4, §5, §6
(§9) Add 50 μL RZ (resazurin 125 μg/ml/PBS: RPMI without FBS; 1:4)
as §8

Caco-2 [7] = assay: as above; format: cell-based; details: Homo sapiens; cell line Caco-2
Procedure: as §1, §2
as §3, with “The” for “This was performed in order to be able to evaluate the toxic concentration of the drug needed to kill 50% of the cellular population present at the beginning of the experiments. This value is represented by C50 in the table. At day-3, the”
as §4, §5, §6, §9, §8

DU-145 [8] = assay: as above; format: cell-based; details: Homo sapiens; cell line DU-145
Procedure: as §1, §2
as §3, with “The” for “This was performed in order to be able to evaluate the toxic concentration of the drug needed to kill 50% of the cellular population present at the beginning of the experiments. This value is represented by C50 in the table. At day-3, the”
as §4, §5, §6, §9, §8

HT-29 [9] = assay: as above; format: cell-based; details: Homo sapiens; cell line HT-29
Procedure: as §1, §2
as §3, with “The” for “This was performed in order to be able to evaluate the toxic concentration of the drug needed to kill 50% of the cellular population present at the beginning of the experiments. This value is represented by C50 in the table. At day-3, the”
as §4, §5, §6, §9, §8

MDA-MB-231 [10] = assay: as above; format: cell-based; details: Homo sapiens; cell line MDA-MB-231
Procedure: as §1, §2
as §3, with “The” for “This was performed in order to be able to evaluate the toxic concentration of the drug needed to kill 50% of the cellular population present at the beginning of the experiments. This value is represented by C50 in the table. At day-3, the”
as §4, §5, §6, §9, §8

CHO = assay: as above; format: cell-based, Chinese Hamster; details: Cricetulus griseus; cell line CHO
Procedure: as §4, §5, §6, §9, §8

K562 = assay: as above; format: cell-based; details: Homo sapiens; cell line K562
Procedure: as §4, §5, §6, §9, §8

L1210 = assay: as above; format: cell-based; details: Mus musculus; cell line L1210
Procedure: as §4, §5, §6, §9, §8

MCF-7 = assay: as above; format: cell-based; details: Homo sapiens, MCF7; cell line MCF-7
Procedure: as §4, §5, §6, §9, §8

T24 = assay: as above; format: cell-based; details: Homo sapiens, T-24; cell line T24
Procedure: as §4, §5, §6, §9, §8

SMILES | IC50 (HT-29 [1]) [µM] | C50 (concentration needed to kill 50% of the cellular population present at the beginning) (HT-29 [1]) [µM] | IC50 (MDA-MB-231 [2]) [µM] | C50 (concentration needed to kill 50% of the cellular population present at the beginning) (MDA-MB-231 [2]) [µM] | IC50 (B16-F0 [3]) [µM] | C50 (concentration needed to kill 50% of the cellular population present at the beginning) (B16-F0 [3]) [µM] | IC50 (Caco-2 [4]) [µM] | C50 (concentration needed to kill 50% of the cellular population present at the beginning) (Caco-2 [4]) [µM] | IC50 (DU-145 [5]) [µM] | C50 (concentration needed to kill 50% of the cellular population present at the beginning) (DU-145 [5]) [µM] | IC50 (B16-F0 [6]) [µM] | IC50 (Caco-2 [7]) [µM] | IC50 (DU-145 [8]) [µM] | IC50 (HT-29 [9]) [µM] | IC50 (MDA-MB-231 [10]) [µM] | IC50 (CHO) [µM] | IC50 (K562) [µM] | IC50 (L1210) [µM] | IC50 (MCF-7) [µM] | IC50 (T24) [µM]
CCCCCCc1ccc(NC(=O)NC(CCl)CCC)cc1 (racemic) [Example 14] | 10.7 | 20.3 | 18.9 | 32.3 | 15.8 | 21.3 | 12.7 | 21.1 | 10.9 | 19.6 | – | – | – | – | – | – | – | – | – | –
CC[C@H](CCl)NC(=O)Nc1ccc(C2CCCCC2)cc1 [Example 12] | 13.6 | 22.8 | 19.6 | 40.3 | 17.3 | 21.5 | 10 | 17.7 | 7.3 | 22.2 | – | – | – | – | – | – | – | – | – | –
CCCCCCCc1ccc(NC(=O)N[C@H](CC)CCl)cc1 [Example 24] | – | – | – | – | – | – | – | – | – | – | 3.74 | 4.85 | 4.02 | 2.94 | 5.17 | 3.14 | 2.9 | 4.04 | 3.78 | 3.61
CCCCCCOc1ccc(NC(=O)N[C@@H](C)CCl)cc1 [Example 27] | – | – | – | – | – | – | – | – | – | – | 8.45 | 7.98 | 12.6 | 10.5 | 9.08 | 3.66 | 7.48 | 8.2 | 7.99 | 9.93
CCCCCCCc1ccc(NC(=O)N[C@@H](C)CCl)cc1 [Example 22] | – | – | – | – | – | – | – | – | – | – | 6.6 | 7.61 | 7.46 | 7.69 | 8.33 | 3.8 | 6.96 | 7.48 | 5.56 | 6.15
CCCCCCCc1ccc(NC(=O)N[C@H](C)CCl)cc1 [Example 21] | – | – | – | – | – | – | – | – | – | – | 3.79 | 4.94 | 3.63 | 2.17 | 4.64 | 3.46 | 2.41 | 2.42 | 3.31 | 2.18
CCCCCCOc1ccc(NC(=O)N[C@@H](CC)CCl)cc1 [Example 28] | – | – | – | – | – | – | – | – | – | – | 8.26 | 9.5 | 9.46 | 8.12 | 8.75 | 3.28 | 3.88 | 7.42 | 10.4 | 7.16
CCCC(CCl)NC(=O)Nc1ccc(C2CCCCC2)cc1 (racemic) [Example 25] | – | – | – | – | – | – | – | – | – | – | 4.14 | 6.04 | 4.3 | 3.03 | 6.37 | 2.12 | 4.93 | 4.12 | 5.05 | 4.24
CCCCCCc1ccc(NC(=O)N[C@H](C)CCl)cc1 [Example 6] | 32.3 | 44.5 | 31.5 | 43.3 | 26.3 | 31.3 | 35.8 | 44.2 | 18.9 | 39.5 | – | – | – | – | – | – | – | – | – | –
CC[C@@H](CCl)NC(=O)Nc1ccc(C2CCCCC2)cc1 [Example 13] | 9.8 | 16.3 | 16.3 | 32.5 | 15.5 | 17.7 | 9.9 | 15.6 | 6.9 | 16.2 | – | – | – | – | – | – | – | – | – | –
CCCCCCCc1ccc(NC(=O)N[C@@H](CC)CCl)cc1 [Example 23] | – | – | – | – | – | – | – | – | – | – | 4.77 | 6.32 | 4.89 | 5.01 | 6.12 | 4.2 | 3.59 | 5.67 | 4.2 | 3.93
COc1ccc(NC(=O)N[C@H](C)CCl)cc1OC [Example 17] | – | – | – | – | – | – | – | – | – | – | 26.4 | > 100 | 34.9 | 14.8 | 43.6 | 32.2 | 9.62 | 10.3 | 25.1 | 12.4
C[C@@H](CCl)NC(=O)Nc1ccc(C2CCCCC2)cc1 [Example 8] | 17.1 | 23.9 | 27.6 | 42.3 | 21.8 | 22.1 | 15.4 | 20.3 | 8.6 | 25.2 | – | – | – | – | – | – | – | – | – | –
CCCCCCc1ccc(NC(=O)N[C@@H](CC)CCl)cc1 [Example 11] | 13.1 | 20.8 | 15.1 | 30.1 | 14.1 | 18.3 | 7.5 | 10.9 | 4.6 | 15.8 | – | – | – | – | – | – | – | – | – | –
CCCCCCc1ccc(NC(=O)N[C@@H](C)CCl)cc1 [Example 7] | 5.1 | 12.8 | 11.7 | 31.9 | 16.3 | 18.2 | 12.6 | 21.1 | 6.3 | 11.8 | – | – | – | – | – | – | – | – | – | –
C[C@H](CCl)NC(=O)Nc1ccc(C2CCCCC2)cc1 [Example 9] | 19 | 28.1 | 27.5 | 42.9 | 15.4 | 17.4 | 8.6 | 14.7 | 7.8 | 27.6 | – | – | – | – | – | – | – | – | – | –
CCCCCCc1ccc(NC(=O)N[C@H](CC)CCl)cc1 [Example 10] | 20.8 | 36.8 | 18 | 40.6 | 18.8 | 24.9 | 10.2 | 13.7 | 7.4 | 27.2 | – | – | – | – | – | – | – | – | – | –
